Test results reported in patent US20170258711A1, “Fatty Acid Acylated D-Amino Acids for Oral Peptide Delivery” (Novo Nordisk A/S, priority 2012, published 2017).

System: Caco-2 cells
Assay: Transepithelial electrical resistance (TEER) of Caco-2 cell monolayers
Assay type: cell-based
Design: unit not given here
Conditions: for TEER 24 h: 24 h after experiment
Method: Caco-2 cells were obtained from the American Type Culture Collection (Manassas, Va.). Cells were seeded in culturing flasks and passaged in Dulbecco's Modified Eagle′ medium supplemented with 10% fetal bovine serum, 1% penicillin/streptomycin (100 U/ml and 100 μg/ml, respectively), 1% L-glutamine and 1% nonessential amino acids. Caco-2 cells were seeded onto tissue culture treated polycarbonate filters in 12-well Transwell plates (1.13 cm2, 0.4 μm pore size) at a density of 10^5 cells/well. Monolayers were grown in an atmosphere of 5% CO2-95% O2 at 37° C. Growth media were replaced every other day. The experiment was performed on day 10-14 after seeding of Caco-2 cells.
Before and during the experiment the transepithelial electrical resistance (TEER) of the cell monolayers was monitored. In selected experiments, the transport buffer were changed to culturing medium after end of experiment and the TEER measured 24 h after experiment. The TEER was measured with EVOM™ Epithelial Voltohmmeter connected to Chopsticks.

[1] = Table 9, insulin analogue A14E, B25H, B29K(N(eps)Octadecanedioyl-gGlu-OEG-OEG), desB30 human insulin + 0.5 mM fatty acid acylated amino acid
[2] = Table 12, comparison D- with L-counterparts, footnote: insulin analogue A1(Nα,Nα-Dimethyl), A14E, B1(Nα,Nα-dimethyl), B25H, B29K(N(eps)Octadecanedioyl-gGlu-OEG-OEG), desB30 human insulin
[3] = Table 12, comparison D- with L-counterparts
[4] = Table 10, L-amino acid counterparts
[5] = Table 11, insulin analogue A1(Nα,Nα-Dimethyl), A14E, B1(Nα,Nα-dimethyl), B25H, B29K(N(eps)Octadecanedioyl-gGlu-OEG-OEG), desB30 human insulin
[6] = Table 10, L-amino acid counterparts, insulin analogue A14E, B25H, B29K(N(eps)Octadecanedioyl-gGlu-OEG-OEG), desB30 human insulin

SMILES | TEER 60 min [1] | TEER 24 h (Table 9, in culturing medium) | TEER 60 min [2] | TEER 24 h [3] | TEER 24 h [4] | TEER 24 h (Table 10, L-amino acid counterparts, listed as N-decanoyl-L-Leucine) | TEER 24 h (Table 9, in culturing medium, listed as N-dodecanoyl-D-Leucine) | TEER 60 min [5] | TEER 24 h [5] | TEER 60 min [6]
CCCCCCCCCC(=O)N[C@H](CC(C)C)C(=O)O [N-decanoyl-D-leucine] | 93.8 | 100.3 | 93.8 | 100.3 | – | – | – | – | – | –
CCCCCCCCCC(=O)N[C@H](C(=O)O)[C@@H](C)CC [N-decanoyl-L-isoleucine, reference compound] | – | – | 58.3 | 102.4 | – | – | – | – | – | –
CCCCCCCCCC(=O)N[C@@H](CC(C)C)C(=O)O [N-decanoyl-L-leucine, reference compound] | – | – | 92.2 | 101.8 | 101.8 | 102.4 | – | – | – | –
CCCCCCCCCCCC(=O)N[C@@H](C(=O)O)[C@H](C)CC [N-dodecanoyl-D-isoleucine] | – | – | 48.3 | 101.4 | – | – | – | – | – | –
CCCCCCCCCCCC(=O)N[C@H](CC(C)C)C(=O)O [N-dodecanoyl-D-leucine] | – | 100.0 | 42.8 | 100 | – | – | 101.4 | 50.9 | 91.4 | –
CCCCCCCCCCCC(=O)N[C@H](Cc1ccccc1)C(=O)O [N-dodecanoyl-D-phenylalanine] | 37.6 | 108.4 | 37.6 | 108.4 | – | – | – | – | – | –
CCCCCCCCCCCC(=O)N1CCC[C@@H]1C(=O)O [N-dodecanoyl-D-proline] | 76.6 | 99.1 | 76.6 | 99.1 | – | – | – | – | – | –
CCCCCCCCCCCC(=O)N[C@@H](C(=O)O)C(C)C [N-dodecanoyl-D-valine] | 66.1 | 99.3 | 66.1 | 99.3 | – | – | – | – | – | –
CCCCCCCCCCCC(=O)N[C@@H](CC(C)C)C(=O)O [N-dodecanoyl-L-leucine, reference compound] | – | – | 47.8 | 107.9 | 107.9 | – | – | 57.4 | 91.7 | 47.8
CCCCCCCCCCCC(=O)N[C@@H](Cc1ccccc1)C(=O)O [N-dodecanoyl-L-phenylalanine, reference compound] | – | – | 36.6 | 100.4 | 100.4 | – | – | – | – | 36.6
CCCCCCCCCCCC(=O)N[C@H](C(=O)O)C(C)C [N-dodecanoyl-L-valine, reference compound] | – | – | 79.7 | 95.3 | 95.3 | – | – | – | – | 79.7
CCCCCCCCCCCCCCCC(=O)N[C@H](CC(=O)O)C(=O)O [N-hexadecanoyl-D-aspartic acid] | 24.1 | 112.2 | 24.1 | 112.2 | – | – | – | 74.7 | 87.0 | –
CCCCCCCCCCCCCCCC(=O)N[C@H](CCC(=O)O)C(=O)O [N-hexadecanoyl-D-glutamic acid] | 35.6 | 106.2 | 35.6 | 106.2 | – | – | – | – | – | –
CCCCCCCCCCCCCCCC(=O)N[C@@H](CC(=O)O)C(=O)O [N-hexadecanoyl-L-aspartic acid, reference compound] | – | – | 33.2 | 112.3 | 112.3 | – | – | 76.0 | 97.2 | 33.2
CCCCCCCCCCCCCCCC(=O)N[C@@H](CCC(=O)O)C(=O)O [N-hexadecanoyl-L-glutamic acid, reference compound] | – | – | 72.3 | 109.5 | 109.5 | – | – | – | – | 72.3
CCCCCCCCCCCCCC(=O)N[C@H](CC(=O)O)C(=O)O [N-tetradecanoyl-D-aspartic acid] | 74.2 | 96.1 | 74.2 | 96.1 | – | – | – | – | – | –
CCCCCCCCCCCCCC(=O)N[C@H](CCC(=O)O)C(=O)O [N-tetradecanoyl-D-glutamic acid] | 79.9 ± 2.9^¤ | 102.2 ± 1.9^¤ | 79.9 ± 2.9^¤ | 102.2 ± 1.9^¤ | – | – | – | – | – | –
CCCCCCCCCCCCCC(=O)N[C@H](Cc1c[nH]c2ccccc12)C(=O)O [N-tetradecanoyl-D-tryptophan] | 31.3 | 109.9 | 31.3 | 109.9 | – | – | – | – | – | –
CCCCCCCCCCCCCC(=O)N[C@H](Cc1ccc(O)cc1)C(=O)O [N-tetradecanoyl-D-tyrosine] | 44.4 | 125.3 | 44.4 | 125.3 | – | – | – | – | – | –
CCCCCCCCCCCCCC(=O)N[C@@H](CC(=O)O)C(=O)O [N-tetradecanoyl-L-aspartic acid, reference compound] | – | – | 77.1 | 100.2 | 100.2 | – | – | – | – | 77.1
CCCCCCCCCCCCCC(=O)N[C@@H](CCC(=O)O)C(=O)O [N-tetradecanoyl-L-glutamic acid, reference compound] | – | – | 82.0 ± 3.2^¤ | 103.1 ± 3.7^¤ | 103.1 ± 3.7^¤ | – | – | – | – | 82.0 ± 3.2^¤
CCCCCCCCCCCCCC(=O)N[C@@H](Cc1c[nH]c2ccccc12)C(=O)O [N-tetradecanoyl-L-tryptophan, reference compound] | – | – | 27.8 | 107.9 | 107.9 | – | – | – | – | 27.8
CCCCCCCCCCCCCC(=O)N[C@@H](Cc1ccc(O)cc1)C(=O)O [N-tetradecanoyl-L-tyrosine, reference compound] | – | – | 41.9 | 122.3 | 122.3 | – | – | – | – | 41.9
